For one assay, the target named is T1, KRAS G12D (Homo sapiens, UniProt P01116, G12D).
T1 construct: AsPc-1-KRAS (G12D)-HiBit-KI cell (Pharmaron); host or cells: AsPc-1-KRAS (G12D)-HiBit-KI cells (HiBiT knock-in at the endogenous KRAS locus)
As to the kind of experiment: KRAS G12D HiBit assay. The format is cell-based. Conditions: AsPc-1-KRAS (G12D)-HiBit-KI cell, compound treatment for 24 hours; for DC50: absolute DC50. The essentials:
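HiBiT luminescence, detected by adding lytic buffer, substrate and LgBiT protein, served as the KRAS G12D read-out. Compounds, serially diluted 3-fold over 10 points from 0.3 mM DMSO stock, were on cells for 24 h; percent inhibition normalized to cells given 0.1% DMSO only.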
Background: The HiBiT peptide binds its large partner to form an active luciferase.

A further assay deals with T2, KRAS G12V (Homo sapiens, UniProt P01116, G12V).
T2 construct: SW620-KRAS (G12V)-HiBit-KI cell (Pharmaron); host or cells: SW620-KRAS (G12V)-HiBit-KI cells (HiBiT knock-in at the endogenous KRAS locus)
T2 sequence (P01116 1-188 isoform P01116-2 G12V): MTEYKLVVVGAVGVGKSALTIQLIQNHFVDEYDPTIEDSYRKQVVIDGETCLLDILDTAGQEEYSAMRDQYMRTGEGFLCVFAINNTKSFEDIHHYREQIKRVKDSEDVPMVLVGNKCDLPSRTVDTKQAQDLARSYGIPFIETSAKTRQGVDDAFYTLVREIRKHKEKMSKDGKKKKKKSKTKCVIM
As to the kind of experiment: KRAS G12V HiBit assay. Format: cell-based. Conditions: SW620-KRAS (G12V)-HiBit-KI cells, compound treatment for 24 hours, class symbols. The essentials:
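Luminescence from lytic Nano-Glo HiBiT detection with LgBiT read KRAS G12V levels after 24 h compound exposure. Dilutions were 10-point, 3-fold, from a 0.3 mM DMSO stock. Degradation activity was normalised to cells given 0.1% DMSO alone.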

[1] abbreviates: numeric bounds given in place of class symbols.

In patent publication US12599672B2, “KRAS proteolysis targeting chimeras” (PAQ Therapeutics Inc., priority 2023, dated 2026) one finds DC50 and Dmax data, which are given here for 15 compounds.

Where only a bound is given, the exact number is not on record here.

T1 sequence (P01116 1-188 isoform P01116-2 G12D): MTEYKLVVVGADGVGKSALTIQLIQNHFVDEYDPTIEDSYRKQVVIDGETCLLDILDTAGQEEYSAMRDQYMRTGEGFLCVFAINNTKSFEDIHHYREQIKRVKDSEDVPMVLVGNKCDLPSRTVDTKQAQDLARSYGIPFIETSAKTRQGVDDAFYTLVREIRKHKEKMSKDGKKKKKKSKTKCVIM

At KRAS G12D (class symbols), `C[C@H]1CN(CCOCCOc2ccc3c(c2)n(C)c(=O)n3C2CCC(=O)NC2=O)CCCN1c1nccc(-c2noc([C@@]3(C)CCCc4sc(N)c(C#N)c43)n2)n1` (stereo partly drawn) [Compound 209, (4S)-2-amino-4-(3-(2-((2S)-4-(2-(2-((1-(2,6-dioxopiperidin-3-yl)-3-methyl-2-oxo-2,3-dihydro-1H-benzo[d]imidazol-5-yl)oxy)ethoxy)ethyl)-2-methyl-1,4-diazepan-1-yl)pyrimidin-4-yl)-1,2,4-oxadiazol-5-yl)-4-methyl-4,5,6,7-tetrahydrobenzo[b]thiophene-3-carbonitrile] came in with a DC50 above 300 nM and a Dmax of 15 to 50%. The compound also showed a DC50 on KRAS G12V above 100 nM.
On to `C#Cc1c(F)ccc2cccc(-c3ncc4c(N5CCC[C@@](C)(O)C5)nc(OCC5(CN6CCN(C7CCN(c8ccc9c(c8)n(C)c(=O)n9C8CCC(=O)NC8=O)CC7)CC6)CC5)nc4c3F)c12` (stereo partly drawn) [Compound 53], for which the DC50 was above 300 nM on KRAS G12D (class symbols) and above 100 nM at KRAS G12V.
The like results for `C#Cc1c(F)ccc2cccc(-c3ncc4c(N5CCC[C@@](C)(O)C5)nc(OCC5(CN6CCC(N7CCC(c8ccc9c(C%10CCC(=O)NC%10=O)nn(C)c9c8)CC7)CC6)CC5)nc4c3F)c12` (stereo partly drawn) [Compound 57] were, in that order, below 100 nM and above 100 nM.
In the same order, the values of `C#Cc1c(F)ccc2cc(O)cc(-c3ncc4c(N5CCC[C@@](C)(O)C5)nc(OCC5(CN6CC7(C6)CN(c6ccc8c(c6)n(C)c(=O)n8C6CCC(=O)NC6=O)C7)CC5)nc4c3F)c12` (stereo partly drawn) [Compound 51] are below 100 nM and above 100 nM.
Turning to `CCc1c(F)ccc2cc(O)cc(-c3ncc4c(N5CCC[C@@](C)(O)C5)nc(OC[C@@]56CCCN5[C@H](CN5CCC(OCCCc7ccc8c(c7)n(C)c(=O)n8C7CCC(=O)NC7=O)CC5)CC6)nc4c3F)c12` (stereo partly drawn) [Compound 486, 3-(5-(3-((1-(((3S,7aS)-7a-(((7-(8-ethyl-7-fluoro-3-hydroxynaphthalen-1-yl)-8-fluoro-4-((R)-3-hydroxy-3-methylpiperidin-1-yl)pyrido[4,3-d]pyrimidin-2-yl)oxy)methyl)hexahydro-1H-pyrrolizin-3-yl)methyl)piperidin-4-yl)oxy)propyl)-3-methyl-2-oxo-2,3-dihydro-1H-benzo[d]imidazol-1-yl)piperidine-2,6-dione], the DC50 at KRAS G12D (setting [1]) and on KRAS G12V was above 100 nM throughout.
`C#Cc1c(F)ccc2cc(O)cc(-c3ncc4c(N5CCC[C@@](C)(O)C5)nc(OCC5(CN6CCC(CN7CCC(c8ccc9c(c8)n(C)c(=O)n9C8CCC(=O)NC8=O)CC7)CC6)CC5)nc4c3F)c12` (stereo partly drawn) [Compound 47]: the DC50 at KRAS G12D (class symbols) was below 100 nM; on KRAS G12V, above 100 nM.
In the same order, the values of `C#Cc1c(F)ccc2cc(O)cc(-c3ncc4c(N5CCC[C@@](C)(O)C5)nc(OC[C@@]56CCCN5[C@H](COC(=O)N5CCC(OCCC#Cc7cccc8c7n(C)c(=O)n8C7CCC(=O)NC7=O)CC5)CC6)nc4c3F)c12` (stereo partly drawn) [Compound 127, ((3S,7aS)-7a-(((7-(8-Ethynyl-7-fluoro-3-hydroxynaphthalen-1-yl)-8-fluoro-4-((R)-3-hydroxy-3-methylpiperidin-1-yl)pyrido[4,3-d]pyrimidin-2-yl)oxy)methyl)hexahydro-1H-pyrrolizin-3-yl)methyl 4-((4-(1-(2,6-dioxopiperidin-3-yl)-3-methyl-2-oxo-2,3-dihydro-1H-benzo[d]imidazol-4-yl)but-3-yn-1-yl)oxy)piperidine-1-carboxylate] are below 100 nM and 10 to 100 nM.
In the same order, the values of `C#Cc1c(F)ccc2cc(O)cc(-c3ncc4c(N5CCC[C@@](C)(O)C5)nc(OC[C@@]56CCCN5[C@H](COC(=O)N5CCC(CN7CCC(c8ccc9c(c8)n(C8CCC(=O)NC8=O)c(=O)n9C)CC7)CC5)CC6)nc4c3F)c12` (stereo partly drawn) [Compound 135] are above 300 nM and above 100 nM.
The like results for `CCc1c(F)ccc2cccc(-c3ncc4c(N5CCC[C@@](C)(O)C5)nc(OC[C@@]56CCCN5[C@H](COC(=O)NCCOc5ccc7c(c5)n(C)c(=O)n7C5CCC(=O)NC5=O)CC6)nc4c3F)c12` (stereo partly drawn) [Compound 111, ((3S,7aS)-7a-(((7-(8-ethyl-7-fluoronaphthalen-1-yl)-8-fluoro-4-((R)-3-hydroxy-3-methylpiperidin-1-yl)pyrido[4,3-d]pyrimidin-2-yl)oxy)methyl)hexahydro-1H-pyrrolizin-3-yl)methyl (2-((1-(2,6-dioxopiperidin-3-yl)-3-methyl-2-oxo-2,3-dihydro-1H-benzo[d]imidazol-5-yl)oxy)ethyl) carbamate] were, in that order, above 300 nM and above 100 nM.
For `CCc1c(F)ccc2cc(O)cc(-c3ccc4c(N5CCC[C@@](C)(O)C5)nc(OC[C@@]56CCCN5[C@@H](COC(=O)N5CCC(CN7CCC(c8ccc9c(c8)n(C)c(=O)n9C8CCC(=O)NC8=O)CC7)CC5)CC6)nc4c3F)c12` (stereo partly drawn) [Compound 319, ((3R,7aS)-7a-(((7-(8-ethyl-7-fluoro-3-hydroxynaphthalen-1-yl)-8-fluoro-4-((R)-3-hydroxy-3-methylpiperidin-1-yl)quinazolin-2-yl)oxy)methyl)hexahydro-1H-pyrrolizin-3-yl)methyl 4-((4-(1-(2,6-dioxopiperidin-3-yl)-3-methyl-2-oxo-2,3-dihydro-1H-benzo[d]imidazol-5-yl)piperidin-1-yl)methyl)piperidine-1-carboxylate], the DC50 on KRAS G12D (setting [1]) and at KRAS G12V was above 100 nM throughout.
In the case of `C#Cc1c(F)ccc2cccc(-c3ncc4c(N5CCC[C@@](C)(O)C5)nc(OCC5(CN6CCN(CC7CCN(c8cccc9c8n(C)c(=O)n9C8CCC(=O)NC8=O)CC7)CC6)CC5)nc4c3F)c12` (stereo partly drawn) [Compound 78], the DC50 was above 300 nM at KRAS G12D (class symbols) and above 100 nM at KRAS G12V.
Regarding `CCc1c(F)ccc2cc(O)cc(-c3ncc4c(N5CCC[C@@](C)(O)C5)nc(OCC56CCCN5C(COCCCN5CCC(c7ccc8c(c7)n(C)c(=O)n8C7CCC(=O)NC7=O)CC5)CC6)nc4c3F)c12` (stereo partly drawn) [Compound 449, 3-(5-(1-(3-((7a-(((7-(8-ethyl-7-fluoro-3-hydroxynaphthalen-1-yl)-8-fluoro-4-((R)-3-hydroxy-3-methylpiperidin-1-yl)pyrido[4,3-d]pyrimidin-2-yl)oxy)methyl)hexahydro-1H-pyrrolizin-3-yl)methoxy)propyl)piperidin-4-yl)-3-methyl-2-oxo-2,3-dihydro-1H-benzo[d]imidazol-1-yl)piperidine-2,6-dione], the DC50 at KRAS G12D (setting [1]) is above 100 nM; at KRAS G12V it was 10 to 100 nM.
In the same order, the values of `CCc1c(F)ccc2cc(O)cc(-c3ncc4c(N5CCC[C@@](C)(O)C5)nc(OC[C@]56CCCN5[C@H](COC(=O)N5CCC(Oc7cccc8c7n(C)c(=O)n8C7CCC(=O)NC7=O)CC5)CC6)nc4c3F)c12` (stereo partly drawn) [Compound 306, ((3S,7aR)-7a-(((7-(8-ethyl-7-fluoro-3-hydroxynaphthalen-1-yl)-8-fluoro-4-((R)-3-hydroxy-3-methylpiperidin-1-yl)pyrido[4,3-d]pyrimidin-2-yl)oxy)methyl)hexahydro-1H-pyrrolizin-3-yl)methyl 4-((1-(2,6-dioxopiperidin-3-yl)-3-methyl-2-oxo-2,3-dihydro-1H-benzo[d]imidazol-4-yl)oxy)piperidine-1-carboxylate] are above 100 nM and 10 to 100 nM.
At KRAS G12D (class symbols), `CCc1c(F)ccc2cccc(-c3ncc4c(N5CCC[C@@](C)(O)C5)nc(OC[C@@]56CCCN5[C@H](COC(=O)NCCOCCOCCOc5ccc7c(c5)n(C)c(=O)n7C5CCC(=O)NC5=O)CC6)nc4c3F)c12` (stereo partly drawn) [Compound 104, ((3S,7aS)-7a-(((7-(8-ethyl-7-fluoronaphthalen-1-yl)-8-fluoro-4-((R)-3-hydroxy-3-methylpiperidin-1-yl)pyrido[4,3-d]pyrimidin-2-yl)oxy)methyl)hexahydro-1H-pyrrolizin-3-yl)methyl (2-(2-(2-((1-(2,6-dioxopiperidin-3-yl)-3-methyl-2-oxo-2,3-dihydro-1H-benzo[d]imidazol-5-yl)oxy)ethoxy)ethoxy)ethyl) carbamate] registered a DC50 above 300 nM and a Dmax of 15 to 50%. The compound also had a DC50 on KRAS G12V above 100 nM.
The like results for `C#Cc1c(F)ccc2cccc(-c3ncc4c(N5CCC[C@@](C)(O)C5)nc(OC[C@@]56CCCN5[C@H](COC(=O)NCCOc5ccc7c(c5)n(C)c(=O)n7C5CCC(=O)NC5=O)CC6)nc4c3F)c12` (stereo partly drawn) [Compound 106, ((3S,7aS)-7a-(((7-(8-ethynyl-7-fluoronaphthalen-1-yl)-8-fluoro-4-((R)-3-hydroxy-3-methylpiperidin-1-yl)pyrido[4,3-d]pyrimidin-2-yl)oxy)methyl)hexahydro-1H-pyrrolizin-3-yl)methyl (2-((1-(2,6-dioxopiperidin-3-yl)-3-methyl-2-oxo-2,3-dihydro-1H-benzo[d]imidazol-5-yl)oxy)ethyl) carbamate] were, in that order, above 300 nM, below 15% and above 100 nM.
